Assay results taken from patent publication US11959083B2, “Immunosuppression-reverting oligonucleotides inhibiting the expression of CD39” (Secarna Pharmaceuticals GmbH & Co. KG, priority 2016, dated 2024).
l = locked nucleic acid (LNA); d = 2'-deoxy (DNA)

Columns and labels:
[1] = test system: hCD39 mRNA; assay: hCD39 mRNA knockdown efficacy screen in HDLM-2 cells (single dose, gymnotic delivery, QuantiGene Singleplex); assay type: cell-based, human; design: key to Relative hCD39 mRNA expression (compared to non-treated cells): *: values are below detection limit; conditions: 10 μM, 3 days; for Mean hCD39 mRNA expression normalized to HPRT1 relative to untreated control = 1: first screening round; for Relative hCD39 mRNA expression (compared to non-treated cells): second screening round, normalized to HPRT1
Method: (§1) FIGS. 2A to 2D depict hCD39 mRNA knockdown efficacy of hCD39 antisense oligonucleotides in human cancer cell lines HDLM-2 (human Hodgkin Lymphoma) in a first and second screening round (FIGS. 2A-1 and 2A-2) and 2B-1 and 2B-2 and A-172 (human glioblastoma) in a first and second screening round (FIGS. 2C-1 and 2C-2) and 2D-1 and 2D-2. HDLM-2 and A-172 cells were treated for 3 days with 10 μM of the respective antisense oligonucleotide. As negative control, cells were treated with neg1, an antisense oligonucleotide having the sequence CGTTTAGGCTATGTACTT (SEQ ID NO:99) (described in WO2014154843 A1). Residual hCD39 mRNA expression relative to untreated cells is depicted. Expression values were normalized to expression of the housekeeping gene HPRT1. Depicted is the mean of triplicate wells+/−SD.
(§2) FIGS. 6A-6B depicts a third screening round where further antisense oligonucleotides were designed. These antisense oligonucleotides were based on efficient antisense oligonucleotides from the first and second screening round. Therefore, hCD39 antisense oligonucleotides were tested in human cancer cell lines HDLM-2 (human Hodgkin's lymphoma) (FIG. 6A) and A-172 (human glioblastoma) (FIG. 6B). HDLM-2 and A-172 cells were treated for 3 days with 10 μM of the respective antisense oligonucleotide. […] Residual hCD39 mRNA expression relative to untreated cells (set as 1) is depicted.
(§3) In order to analyze the efficacy of hCD39 antisense oligonucleotides of the present invention with regard to the knockdown of hCD39 mRNA expression in cancer cell lines, HDLM-2 (human Hodgkin Lymphoma, DSMZ) and A-172 (human glioblastoma, ATCC) cells were treated with a single dose (concentration: 10 μM without addition of any transfection reagent; this process is called gymnotic delivery) of the respective antisense oligonucleotide as shown in FIG. 2A to 2D. hCD39 and HPRT1 mRNA expression was analyzed three days later using the QuantiGene Singleplex assay (Affymetrix) and hCD39 expression values were normalized to HPRT1 values. […] Values of the mean normalized mRNA expression of hCD39 compared to non-treated cells are listed for A-172 (Table 4 for first screening round and Table 5 for second screening round) and HDLM-2 cells (Table 6 for first screening round and Table 7 for second screening round) in the following:
(§4) For a third screening round, new antisense oligonucleotides were designed. These antisense oligonucleotides were based on efficient antisense oligonucleotides from the first screening round with modifications in length, exact position on mRNA and chemical modification pattern. Therefore, hCD39 antisense oligonucleotides were tested in human cancer cell lines (FIG. 6A, Table 10) HDLM-2 (human Hodgkin's lymphoma) and (FIG. 6B, Table 11) A-172 (human glioblastoma). HDLM-2 and A-172 cells were treated for 3 days with 10 μM of the respective antisense oligonucleotide. […] Residual hCD39 mRNA expression relative to untreated cells (set as 1) is depicted.

[2] = test system: hCD39 mRNA; assay: hCD39 mRNA knockdown efficacy screen in A-172 cells (single dose, gymnotic delivery, QuantiGene Singleplex); assay type: cell-based, human; conditions: 10 μM, 3 days, normalized to HPRT1; for Mean hCD39 mRNA expression (relative to untreated cells set as 1): first screening round; for Relative hCD39 mRNA expression (compared to non-treated cells): second screening round
Method: as §1, §2, §3, §4

| Substance | Mean hCD39 mRNA expression normalized to HPRT1 relative to untreated control = 1 [1] | Relative hCD39 mRNA expression (compared to non-treated cells) [1] | Mean hCD39 mRNA expression (relative to untreated cells set as 1) [2] | Relative hCD39 mRNA expression (compared to non-treated cells) [2] |
| --- | --- | --- | --- | --- |
| +A*+A*+A*G*T*C*C*A*G*C*C*G*G*C*G*+T*+C (antisense AAAGTCCAGCCGGCGTC; sugars from the 5' end l3 d12 l2, all phosphorothioate, methylation of C not given here) [A04050H] | 0.11 | 0.90 | 0.55 | 0.28 |
| +A*+A*+G*G*T*C*A*C*T*T*A*C*G*T*+T*+C*+A (antisense AAGGTCACTTACGTTCA; sugars from the 5' end l3 d11 l3, all phosphorothioate, methylation of C not given here) [A04046H] | 0.04 | 0.37 | 0.14 | 0.08 |
| +A*+A*+T*C*C*C*C*C*T*G*G*A*+G*+T*+G (antisense AATCCCCCTGGAGTG; sugars from the 5' end l3 d9 l3, all phosphorothioate, methylation of C not given here) [A04011H] | 0.29 | 0.30 |  | 0.69 |
| +A*+C*+G*T*T*C*A*C*T*A*C*C*T*T*+C*+T*+T (antisense ACGTTCACTACCTTCTT; sugars from the 5' end l3 d11 l3, all phosphorothioate, methylation of C not given here) [A04043H] | 0.04 | * | 0.21 | 0.11 |
| +A*+C*+T*A*T*G*C*T*G*A*A*C*C*A*+C*+C (antisense ACTATGCTGAACCACC; sugars from the 5' end l3 d11 l2, all phosphorothioate, methylation of C not given here) [A04022H] | 0.09 | 0.09 | 0.14 | 0.15 |
| +A*+C*+T*C*C*A*C*A*C*T*A*A*T*+G*+C*+T (antisense ACTCCACACTAATGCT; sugars from the 5' end l3 d10 l3, all phosphorothioate, methylation of C not given here) [A04037H] | 0.12 | 0.10 | 0.17 | 0.09 |
| +A*+C*+T*C*C*A*G*C*G*T*A*A*+G*+A*+T (antisense ACTCCAGCGTAAGAT; sugars from the 5' end l3 d9 l3, all phosphorothioate, methylation of C not given here) [A04013H] | 0.22 | 0.22 |  | 0.75 |
| +A*+G*+C*C*T*A*T*G*A*T*G*G*C*C*+A*+C (antisense AGCCTATGATGGCCAC; sugars from the 5' end l3 d11 l2, all phosphorothioate, methylation of C not given here) [A04031H] |  | * |  | 0.55 |
| +A*+G*+C*G*T*A*A*G*A*T*G*T*+T*+T*+T (antisense AGCGTAAGATGTTTT; sugars from the 5' end l3 d9 l3, all phosphorothioate, methylation of C not given here) [A04012H] | 0.11 | 0.10 | 0.43 | 0.43 |
| +A*+G*+G*C*G*A*A*A*T*T*G*C*+A*+G*+A (antisense AGGCGAAATTGCAGA; sugars from the 5' end l3 d9 l3, all phosphorothioate, methylation of C not given here) [A04008H] | 0.20 | 0.20 | 0.46 | 0.46 |
| +A*+G*A*G*T*G*C*C*T*G*A*T*C*C*+T*+T (antisense AGAGTGCCTGATCCTT; sugars from the 5' end l2 d12 l2, all phosphorothioate, methylation of C not given here) [A04025H] | 0.08 | 0.08 | 0.13 | 0.13 |
| +A*+G*G*A*T*A*G*T*C*T*T*G*T*C*+T*+C (antisense AGGATAGTCTTGTCTC; sugars from the 5' end l2 d12 l2, all phosphorothioate, methylation of C not given here) [A04034H] | 0.06 | 0.06 | 0.28 | 0.15 |
| +A*+G*T*C*C*A*G*C*C*G*G*C*G*T*+C (antisense AGTCCAGCCGGCGTC; sugars from the 5' end l2 d12 l1, all phosphorothioate, methylation of C not given here) [A04015H] | 0.29 | 0.29 |  | 1.05 |
| +A*+T*+G*T*A*G*C*C*C*A*A*A*G*T*+C*+C (antisense ATGTAGCCCAAAGTCC; sugars from the 5' end l3 d11 l2, all phosphorothioate, methylation of C not given here) [A04028H] | 0.07 | 0.07 | 0.29 | 0.29 |
| +C*+A*+T*G*T*A*G*C*C*C*A*A*A*+G*+T*+C (antisense CATGTAGCCCAAAGTC; sugars from the 5' end l3 d10 l3, all phosphorothioate, methylation of C not given here) [A04029H] | 0.03 | 0.03 | 0.45 | 0.46 |
| +C*+C*+C*T*C*T*C*A*C*T*A*A*A*+T*+T*+A (antisense CCCTCTCACTAAATTA; sugars from the 5' end l3 d10 l3, all phosphorothioate, methylation of C not given here) [A04036H] | 0.26 | 0.01 | 0.55 | 0.28 |
| +C*+C*C*T*G*G*A*T*C*T*T*G*C*C*+A*+A*+T (antisense CCCTGGATCTTGCCAAT; sugars from the 5' end l2 d12 l3, all phosphorothioate, methylation of C not given here) [A04049H] |  | * |  | 0.45 |
| +C*+T*+A*T*G*C*T*G*A*A*C*C*+A*+C*+C (antisense CTATGCTGAACCACC; sugars from the 5' end l3 d9 l3, all phosphorothioate, methylation of C not given here) [A04005H] | 0.21 | 0.21 | 0.11 | 0.11 |
